# In patent publication US6869968B1, “2-(3H)-oxazolone derivatives and their use as COX-2 inhibitors” (Allmirall Prodesfarma S.A., priority 1996, dated 2005):
# Experiments:
# [1] = test system: adjuvant arthritis (Mycobacterium tuberculosis in paraffin oil, hind paw); assay: Anti-inflammatory activity (adjuvant arthritis), hind paw volume; assay type: in vivo, Male Wistar rats; settings: paw volume on day 21
# Protocol: Anti-Inflammatory Activity (Adjuvant Arthritis)
# Male Wistar rats weighing 175-200 g with free access to food and water were used. On day 0, the animals received an intraplantar injection of a suspension of Mycobacterium tuberculosis in paraffin oil (0.5 mg/rat) on the left hind paw. A group of 8 nonarthritic control rats were injected with paraffin oil alone. On days 11 and 14 after induction of arthritis, the volume of the hind paw of each rat was measured using a water plehysmograph. Animals whose paw volumes increased during that time were selected. Rats were distributed into groups of 8 having equal mean paw volumes and an approximately equal standard deviation.
# Test compounds were administered p.o. once daily for 7 days (days 14-20). Nonarthritic and arthritic control rats received vehicle alone for 7 days. The hind paw volumes were measured 20 h after the last dose (on day 21). The body weight was determined every second day.
# The results are expressed as the percentage of inhibition of inflammation (paw volume) for each treatment group, considering both the arthritic and nonarthritic vehicle controls. The ANOVA test was used for statistical studies.
# (§1) For the in vivo assays all drugs were administered in vehicle (0.1% Tween 80+0.5% methylcellulose in distilled water) in a volume of 5 ml/kg.
# glandular stomach = assay: Ulcerogenic activity (gastric lesion index); assay type: in vivo, Male Wistar rat; settings: oral route, fasted rats, sacrificed 6 hours after dosage
# Protocol: Animals: Male Wistar (Interfauna, U.K., Ltd.) weighing about 120-150 g were used. They were maintained on a 12:12 hour light-dark cycle (lights on at 7:00 a.m.) at room temperature (22±1° C.). The animals were fasted for 18 h prior to the experiment with free access to drinking water.
# Procedure: Experiments were performed from 9 to 17 h. The compounds were administered by-the oral route and the animals were sacrificed 6 hours after drugs dosage. The stomach of each rat was removed, opened and gently washed. The macroscopic severity of the erosions was assessed using a parametric scale (Cosen and Mazure), evaluating the number and size of the ulcers in the glandular stomach. Thus, each stomach was classified with an index lesion and compared with the gastrolesivity induced by ketorolac 100 mg/kg p.o., used as a positive standard. The treatments were randomized in each experiment.
# as §1
# Cyclooxygenase-2 (COX-2) = biological target: T1, Cyclooxygenase-2 (COX-2) (Homo sapiens, UniProt P35354); assay: Inhibition of cyclooxygenase-2 (COX-2) activity in HUV-EC-C cell line (prostaglandin E2 ELISA); assay type: cell-based; settings: for IC50: PMA/TPA-induced HUV-EC-C cells, 50 μM arachidonic acid, mean of three independent experiments, read-out: COX-2 (μM), results expressed as IC50 values; for Ratio COX-1:COX-2: ratio of IC50 COX-1 (platelets) to IC50 COX-2 (HUV-EC-C)
# T1 construct: Quiescent HUV-EC-C cells were treated with 50 nM TPA for 6 h at 37° C. to induce the COX-2 isoenzyme; endogenous in cells; host or cells: HUV-EC-C human endothelial cell line, passage 19-27, induced with 50 nM TPA/PMA
# T1 sequence (P35354 18-604): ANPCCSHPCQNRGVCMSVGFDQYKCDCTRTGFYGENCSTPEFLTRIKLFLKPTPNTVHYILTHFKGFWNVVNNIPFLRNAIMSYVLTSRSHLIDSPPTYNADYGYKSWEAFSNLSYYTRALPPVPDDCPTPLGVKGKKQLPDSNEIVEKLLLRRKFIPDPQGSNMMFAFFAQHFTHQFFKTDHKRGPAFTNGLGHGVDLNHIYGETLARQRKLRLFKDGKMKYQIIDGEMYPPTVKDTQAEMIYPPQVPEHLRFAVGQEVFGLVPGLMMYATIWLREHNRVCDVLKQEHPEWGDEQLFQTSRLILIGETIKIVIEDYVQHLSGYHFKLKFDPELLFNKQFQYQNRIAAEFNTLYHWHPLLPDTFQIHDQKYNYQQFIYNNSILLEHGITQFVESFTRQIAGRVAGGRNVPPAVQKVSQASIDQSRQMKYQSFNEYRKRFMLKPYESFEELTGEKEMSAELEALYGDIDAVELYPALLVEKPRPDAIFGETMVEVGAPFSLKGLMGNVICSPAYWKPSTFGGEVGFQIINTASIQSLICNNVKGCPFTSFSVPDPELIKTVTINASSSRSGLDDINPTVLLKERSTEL
# Protocol: (§2) For the whole-cell COX-1 and COX-2 assays, stock solutions (10^−3M) of the drugs were dissolved in 50% dimethylsulphoxide, and further dilutions were done with medium.
# Inhibition of Cyclooxygenase-2 (COX-2) Activity in HUV-EC-C Cell Line
# HUV-EC-C cells were grown on Ham's F12K medium containing 10% fetal bovine serum, 100 μg/ml heparin and 50 μg/ml Endothelial Cell Growth Supplement (ECGS). Experiments were performed with HUV-EC-C passage 19-27. Cells (2×10^4) were seeded onto 96-well plates and made quiescent by removing the growth factor for 48 h before the initiation of the experiments. Quiescent HUV-EC-C cells were treated with 50 nM TPA for 6 h at 37° C. to induce the COX-2 isoenzyme. The cultured medium was then changed and cells were incubated with drugs for 30 min. at 37° C. Arachidonic acid (50 μM) was then added, and the cells were incubated for a further 30 min. The production of prostaglandine E2 in response to arachidonic acid was measured in the supernatants using a solid-phase immunoassay (ELISA). The results are expressed as the mean of the IC50 values obtained from three independent experiments.
# (§3) For the whole-cell COX-1 and COX-2 assays stock solutions (10^−3 M) of the drugs wer dissolved in 50% dimethylsulphoxide, and further dilutions were done with medium.
# Cyclooxygenase-1 (COX-1) = biological target: T2, Cyclooxygenase-1 (COX-1) (Homo sapiens, UniProt P23219); assay: Inhibition of cyclooxygenase-1 (COX-1) activity in human platelets (thromboxane B2 ELISA); assay type: cell-based; settings: 50 μM arachidonic acid, mean of three independent experiments, read-out: COX-1 (μM), results expressed as IC50 values
# T2 construct: Platelets were isolated from peripheral human blood obtained from healthy donors; endogenous in cells; host or cells: human platelets from peripheral blood of healthy donors
# Protocol: as §2
# Inhibition of Cyclooxygenase-1 (COX-1) Activity in Human Platelets
# The blood was anticoagulated with 2 mg/ml sodium EDTA and centrifuged at 180 g for 10 min. at room temperature to obtain platelet-rich plasma. The platelet-rich plasma was centrifuged at 2000 g for 20 min. at 4° C. to obtain a platelet pellet. Cells were washed twice with PBS without […] and resuspended to 5×10^7 cells with Hank's balanced salt solution (HBSS). Platelets (10^7) were preincubated with the drugs for 15 min. at 37° C. and incubations were continued for a further 15 min. in the presence of 50 μM arachidonic acid. The production of tromboxane B2 in response to arachidonic acid was measured in the supernatants using a solid-phase immunoassay (ELISA). The results are expressed as the mean of the IC50 values obtained from three independent experiments.
# as §3
# [2] = 1 mg/kg p.o. once daily for 7 days (days 14-20)
# T2 sequence (P23219 24-599): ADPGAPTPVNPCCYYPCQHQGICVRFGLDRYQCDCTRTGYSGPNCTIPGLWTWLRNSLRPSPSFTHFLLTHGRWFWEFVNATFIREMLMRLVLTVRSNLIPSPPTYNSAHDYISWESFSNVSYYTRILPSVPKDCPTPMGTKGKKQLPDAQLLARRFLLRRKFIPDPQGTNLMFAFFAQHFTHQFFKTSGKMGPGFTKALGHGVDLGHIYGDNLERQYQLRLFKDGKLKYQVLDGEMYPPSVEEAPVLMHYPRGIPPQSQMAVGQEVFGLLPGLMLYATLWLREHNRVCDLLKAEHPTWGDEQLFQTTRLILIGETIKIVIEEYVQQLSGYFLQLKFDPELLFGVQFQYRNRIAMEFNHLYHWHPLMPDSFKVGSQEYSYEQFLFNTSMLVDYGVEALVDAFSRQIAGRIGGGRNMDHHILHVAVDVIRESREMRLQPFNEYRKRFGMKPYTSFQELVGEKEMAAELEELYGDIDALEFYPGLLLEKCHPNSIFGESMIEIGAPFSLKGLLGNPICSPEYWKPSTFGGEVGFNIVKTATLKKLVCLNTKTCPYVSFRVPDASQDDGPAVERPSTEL
Compound,"% Inhibition (dose, mg/kg) [1, 2]",UD50 (glandular stomach) [mg/kg],IC50 (Cyclooxygenase-2 (COX-2)) [µM],Ratio COX-1:COX-2 (Cyclooxygenase-2 (COX-2)),IC50 (Cyclooxygenase-1 (COX-1)) [µM],melting point [°C],"% Inhibition (dose, mg/kg) ([1]; 3 mg/kg p.o. once daily for 7 days (days 14-20))"
"COc1ccc2c(c1)c(CC(=O)O)c(C)n2C(=O)c1ccc(Cl)cc1 [Indomethacin, 1-(4-chlorobenzoyl)-5-methoxy-2-methylindole-3-acetic acid, reference compound]",64 (1) %,17,,,,,
"NS(=O)(=O)c1ccc(-c2coc(=O)n2-c2ccc(F)cc2F)cc1 [Compound 27, 3-(2,4-difluorophenyl)-4-(4-aminosulphonylphenyl)-2-(3H)-oxazolone]",64 (1) %,>100,0.1,89,8.9,,
"CS(=O)(=O)c1ccc(-c2coc(=O)n2-c2ccc(Br)cc2)cc1 [Compound 9, 3-(4-bromophenyl)-4-(4-methylsulfonylphenyl)-2-(3H)-oxazolone]",,,0.11,>909,> 100,217 to 219,
"CS(=O)(=O)c1ccc(-c2coc(=O)n2-c2ccc(F)cc2)cc1 [Compound 6, 3-(4-fluorophenyl)-4-(4-methylsulfonylphenyl)-2-(3H)-oxazolone]",,>100,3.2,39.6,127,,52 (3) %
"NS(=O)(=O)c1ccc(-c2coc(=O)n2-c2ccc(Cl)c(Cl)c2)cc1 [Compound 20, 3-(3,4-dichlorophenyl)-4-(4-aminosulphonylphenyl)-2-(3H)-oxazolone]",67 (1) %,>100,0.06,58.3,3.5,,
"NS(=O)(=O)c1ccc(-c2coc(=O)n2-c2ccc(F)cc2)cc1 [Compound 18, 3-(4-fluorophenyl)-4-(4-aminosulfonylphenyl)-2-(3H)-oxazolone]",63 (1) %,,0.53,2.8,1.5,,
"NS(=O)(=O)c1ccc(-c2coc(=O)n2-c2ccccc2F)cc1 [Compound 26, 3-(2-fluorophenyl)-4-(4-aminosulphonylphenyl)-2-(3H)-oxazolone]",65 (1) %,>100,0.0096,2354,22.6,,
